From publication PMC3961306, “Comparison of the Cancer Gene Targeting and Biochemical Selectivities of All Targeted Kinase Inhibitors Approved for Clinical Use” (PLoS ONE, 2014)

Key:
Assay in all cases: Kinase profiling in a biochemical assay panel (mobility shift assays and ELISA), %-inhibition at 1 μM; selectivity entropy
[1] = biological target: T1, panel of more than 300 wild-type and mutant kinases (313 kinase panel) (Homo sapiens, UniProt O14757); conditions: kinase CHK1; 1 μM compound
T1 sequence (O14757 1-476): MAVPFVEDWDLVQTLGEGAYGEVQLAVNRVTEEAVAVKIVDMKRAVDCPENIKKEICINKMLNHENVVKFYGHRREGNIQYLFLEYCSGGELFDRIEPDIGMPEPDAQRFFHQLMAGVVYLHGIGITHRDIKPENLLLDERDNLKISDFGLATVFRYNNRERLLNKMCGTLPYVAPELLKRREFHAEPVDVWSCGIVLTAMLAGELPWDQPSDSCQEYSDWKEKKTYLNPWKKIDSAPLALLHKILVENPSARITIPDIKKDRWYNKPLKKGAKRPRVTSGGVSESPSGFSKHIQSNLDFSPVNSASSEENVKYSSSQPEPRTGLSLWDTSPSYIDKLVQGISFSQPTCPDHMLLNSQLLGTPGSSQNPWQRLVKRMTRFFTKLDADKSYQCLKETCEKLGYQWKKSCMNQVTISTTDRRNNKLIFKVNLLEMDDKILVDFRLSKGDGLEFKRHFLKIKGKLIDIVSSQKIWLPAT

[2] = biological target: panel of more than 300 wild-type and mutant kinases (313 kinase panel) (Homo sapiens, UniProt O95819); conditions: kinase HGK; compound at 1 μM
[3] = biological target: panel of more than 300 wild-type and mutant kinases (313 kinase panel) (Homo sapiens, UniProt P05771); conditions: kinase PKCβ1; 1 μM
[4] = biological target: panel of more than 300 wild-type and mutant kinases (313 kinase panel) (Homo sapiens, UniProt P22455); conditions: kinase FGFR4; compound at 1 μM
[5] = biological target: panel of more than 300 wild-type and mutant kinases (313 kinase panel) (Homo sapiens, UniProt P22607, K650M); conditions: kinase FGFR3(K650M); compound at 1 μM
[6] = biological target: panel of more than 300 wild-type and mutant kinases (313 kinase panel) (Homo sapiens, UniProt Q00534); conditions: kinase CDK6/CycD3; 1 μM compound
[7] = biological target: panel of more than 300 wild-type and mutant kinases (313 kinase panel) (Homo sapiens, UniProt Q14289); conditions: kinase PYK2; 1 μM
[8] = biological target: panel of more than 300 wild-type and mutant kinases (313 kinase panel) (Homo sapiens, UniProt Q15119); conditions: kinase PDHK2; 1 μM
[9] = biological target: panel of more than 300 wild-type and mutant kinases (313 kinase panel) (Homo sapiens, UniProt Q9BYP7); conditions: kinase WNK3; compound at 1 μM
[10] = biological target: T2, panel of more than 300 wild-type and mutant kinases (313 kinase panel) (Homo sapiens, UniProt Q9H093); conditions: kinase NuaK2; 1 μM
T2 sequence (Q9H093 1-628): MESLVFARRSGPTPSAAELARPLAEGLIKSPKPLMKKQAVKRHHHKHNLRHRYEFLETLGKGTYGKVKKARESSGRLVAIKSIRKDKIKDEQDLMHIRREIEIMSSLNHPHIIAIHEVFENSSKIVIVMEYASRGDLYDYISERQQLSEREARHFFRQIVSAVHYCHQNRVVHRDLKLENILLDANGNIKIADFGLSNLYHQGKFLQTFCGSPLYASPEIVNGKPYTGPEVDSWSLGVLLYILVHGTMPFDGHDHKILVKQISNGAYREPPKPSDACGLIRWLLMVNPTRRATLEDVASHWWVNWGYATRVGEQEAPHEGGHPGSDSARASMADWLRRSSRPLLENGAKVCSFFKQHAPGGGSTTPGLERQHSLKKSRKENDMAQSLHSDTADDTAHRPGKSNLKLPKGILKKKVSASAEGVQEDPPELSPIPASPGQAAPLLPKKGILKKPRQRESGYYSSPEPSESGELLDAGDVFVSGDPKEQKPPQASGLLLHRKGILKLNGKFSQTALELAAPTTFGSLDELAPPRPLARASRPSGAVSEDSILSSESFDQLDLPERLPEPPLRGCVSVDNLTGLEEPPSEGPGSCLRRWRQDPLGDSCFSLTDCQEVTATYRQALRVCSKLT

[11] = biological target: panel of more than 300 wild-type and mutant kinases (313 kinase panel) (Homo sapiens, UniProt Q9UPE1); conditions: kinase MSSK1; 1 μM
[12] = biological target: panel of more than 300 wild-type and mutant kinases (313 kinase panel) (Homo sapiens, UniProt Q9Y3S1); conditions: kinase WNK2; compound at 1 μM
[13] = biological target: panel of more than 300 wild-type and mutant kinases (313 kinase panel) (Homo sapiens, UniProt Q15375); conditions: kinase EPHA7; compound at 1 μM
[14] = biological target: panel of more than 300 wild-type and mutant kinases (313 kinase panel) (Homo sapiens, UniProt Q7KZI7)
[15] = biological target: panel of more than 300 wild-type and mutant kinases (313 kinase panel) (Homo sapiens, UniProt P19784)
Sequence of panel of more than 300 wild-type and mutant kinases (313 kinase panel) (Homo sapiens, UniProt P19784) (P19784 whole entry, change not shown): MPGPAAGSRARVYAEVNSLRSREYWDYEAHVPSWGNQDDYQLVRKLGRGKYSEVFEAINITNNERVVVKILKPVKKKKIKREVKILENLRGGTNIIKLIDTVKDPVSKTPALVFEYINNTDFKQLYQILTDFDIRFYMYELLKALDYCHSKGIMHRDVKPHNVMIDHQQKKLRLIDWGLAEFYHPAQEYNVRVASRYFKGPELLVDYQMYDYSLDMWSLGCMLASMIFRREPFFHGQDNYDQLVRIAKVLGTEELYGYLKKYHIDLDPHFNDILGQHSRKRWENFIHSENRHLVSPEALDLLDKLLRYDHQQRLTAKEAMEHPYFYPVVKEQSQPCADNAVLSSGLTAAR

Sequence of panel of more than 300 wild-type and mutant kinases (313 kinase panel) (Homo sapiens, UniProt Q15375) (Q15375 28-998, change not shown): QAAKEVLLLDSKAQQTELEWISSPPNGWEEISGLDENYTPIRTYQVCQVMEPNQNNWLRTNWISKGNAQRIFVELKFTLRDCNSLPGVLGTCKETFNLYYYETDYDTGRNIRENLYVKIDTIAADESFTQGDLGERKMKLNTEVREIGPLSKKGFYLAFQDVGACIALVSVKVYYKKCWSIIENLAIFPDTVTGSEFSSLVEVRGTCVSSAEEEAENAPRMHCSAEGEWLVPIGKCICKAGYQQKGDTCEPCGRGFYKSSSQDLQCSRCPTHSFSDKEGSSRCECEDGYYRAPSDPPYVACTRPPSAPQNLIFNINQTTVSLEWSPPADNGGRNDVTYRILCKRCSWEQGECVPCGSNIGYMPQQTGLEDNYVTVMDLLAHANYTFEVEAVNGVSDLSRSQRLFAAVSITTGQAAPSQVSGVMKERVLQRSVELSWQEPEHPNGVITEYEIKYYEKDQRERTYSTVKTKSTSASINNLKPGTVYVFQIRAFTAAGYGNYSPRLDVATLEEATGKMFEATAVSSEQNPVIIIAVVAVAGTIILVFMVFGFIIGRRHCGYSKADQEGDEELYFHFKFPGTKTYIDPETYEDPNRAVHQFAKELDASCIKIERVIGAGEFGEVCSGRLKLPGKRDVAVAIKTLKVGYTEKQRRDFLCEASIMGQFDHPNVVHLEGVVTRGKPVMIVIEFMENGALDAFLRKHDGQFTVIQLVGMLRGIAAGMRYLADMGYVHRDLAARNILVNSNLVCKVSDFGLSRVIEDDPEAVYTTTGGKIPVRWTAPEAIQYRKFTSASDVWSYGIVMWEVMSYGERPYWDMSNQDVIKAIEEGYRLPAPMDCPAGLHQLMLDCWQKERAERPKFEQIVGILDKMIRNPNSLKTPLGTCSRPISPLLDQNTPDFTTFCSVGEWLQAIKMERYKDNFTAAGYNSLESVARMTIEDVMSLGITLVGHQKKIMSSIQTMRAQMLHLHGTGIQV
Sequence of panel of more than 300 wild-type and mutant kinases (313 kinase panel) (Homo sapiens, UniProt Q9BYP7) (Q9BYP7 whole entry, change not shown): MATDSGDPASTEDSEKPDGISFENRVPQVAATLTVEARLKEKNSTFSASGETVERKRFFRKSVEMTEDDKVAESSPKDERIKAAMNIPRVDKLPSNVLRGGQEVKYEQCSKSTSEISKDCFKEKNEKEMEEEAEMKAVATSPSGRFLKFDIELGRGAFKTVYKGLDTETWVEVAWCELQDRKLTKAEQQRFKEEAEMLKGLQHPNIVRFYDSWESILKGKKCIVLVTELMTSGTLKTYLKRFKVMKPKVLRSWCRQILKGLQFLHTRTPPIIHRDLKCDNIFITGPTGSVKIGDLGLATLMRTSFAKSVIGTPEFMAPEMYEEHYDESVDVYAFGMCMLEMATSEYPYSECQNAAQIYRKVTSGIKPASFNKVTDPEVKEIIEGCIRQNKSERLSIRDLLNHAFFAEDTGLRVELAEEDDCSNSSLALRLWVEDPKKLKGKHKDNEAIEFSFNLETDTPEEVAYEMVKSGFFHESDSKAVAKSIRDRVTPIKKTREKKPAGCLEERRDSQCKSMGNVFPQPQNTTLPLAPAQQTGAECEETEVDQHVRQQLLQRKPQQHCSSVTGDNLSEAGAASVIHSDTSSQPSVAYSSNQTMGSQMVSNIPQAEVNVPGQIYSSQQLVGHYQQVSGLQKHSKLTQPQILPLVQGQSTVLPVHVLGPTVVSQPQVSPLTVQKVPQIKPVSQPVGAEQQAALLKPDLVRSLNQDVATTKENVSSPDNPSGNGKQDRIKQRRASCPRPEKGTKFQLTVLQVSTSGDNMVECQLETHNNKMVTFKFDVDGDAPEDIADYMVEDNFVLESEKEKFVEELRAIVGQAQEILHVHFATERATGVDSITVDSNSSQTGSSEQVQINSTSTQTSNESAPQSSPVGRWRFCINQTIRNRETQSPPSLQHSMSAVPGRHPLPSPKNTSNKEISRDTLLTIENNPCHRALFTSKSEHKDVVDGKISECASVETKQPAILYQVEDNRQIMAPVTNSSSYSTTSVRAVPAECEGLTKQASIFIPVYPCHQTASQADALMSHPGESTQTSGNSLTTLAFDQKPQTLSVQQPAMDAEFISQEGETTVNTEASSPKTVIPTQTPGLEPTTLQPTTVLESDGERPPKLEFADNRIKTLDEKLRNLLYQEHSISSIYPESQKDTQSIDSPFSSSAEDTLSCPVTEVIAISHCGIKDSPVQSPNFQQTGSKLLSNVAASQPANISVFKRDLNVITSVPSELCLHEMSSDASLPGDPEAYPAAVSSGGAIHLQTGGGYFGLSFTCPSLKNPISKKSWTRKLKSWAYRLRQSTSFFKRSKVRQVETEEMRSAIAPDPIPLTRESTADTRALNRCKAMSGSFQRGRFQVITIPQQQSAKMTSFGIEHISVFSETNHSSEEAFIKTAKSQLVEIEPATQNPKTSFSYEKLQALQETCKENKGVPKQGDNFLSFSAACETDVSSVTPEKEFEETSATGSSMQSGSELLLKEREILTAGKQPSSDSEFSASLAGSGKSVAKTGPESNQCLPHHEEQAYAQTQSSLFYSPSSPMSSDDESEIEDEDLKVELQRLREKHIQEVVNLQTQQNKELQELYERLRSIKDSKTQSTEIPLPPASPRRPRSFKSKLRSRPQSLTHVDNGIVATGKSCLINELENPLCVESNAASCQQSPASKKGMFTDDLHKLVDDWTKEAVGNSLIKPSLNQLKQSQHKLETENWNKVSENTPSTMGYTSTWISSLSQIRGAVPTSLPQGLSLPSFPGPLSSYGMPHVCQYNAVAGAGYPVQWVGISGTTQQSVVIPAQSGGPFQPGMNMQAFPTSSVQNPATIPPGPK
Sequence of panel of more than 300 wild-type and mutant kinases (313 kinase panel) (Homo sapiens, UniProt Q14289) (Q14289 whole entry, change not shown): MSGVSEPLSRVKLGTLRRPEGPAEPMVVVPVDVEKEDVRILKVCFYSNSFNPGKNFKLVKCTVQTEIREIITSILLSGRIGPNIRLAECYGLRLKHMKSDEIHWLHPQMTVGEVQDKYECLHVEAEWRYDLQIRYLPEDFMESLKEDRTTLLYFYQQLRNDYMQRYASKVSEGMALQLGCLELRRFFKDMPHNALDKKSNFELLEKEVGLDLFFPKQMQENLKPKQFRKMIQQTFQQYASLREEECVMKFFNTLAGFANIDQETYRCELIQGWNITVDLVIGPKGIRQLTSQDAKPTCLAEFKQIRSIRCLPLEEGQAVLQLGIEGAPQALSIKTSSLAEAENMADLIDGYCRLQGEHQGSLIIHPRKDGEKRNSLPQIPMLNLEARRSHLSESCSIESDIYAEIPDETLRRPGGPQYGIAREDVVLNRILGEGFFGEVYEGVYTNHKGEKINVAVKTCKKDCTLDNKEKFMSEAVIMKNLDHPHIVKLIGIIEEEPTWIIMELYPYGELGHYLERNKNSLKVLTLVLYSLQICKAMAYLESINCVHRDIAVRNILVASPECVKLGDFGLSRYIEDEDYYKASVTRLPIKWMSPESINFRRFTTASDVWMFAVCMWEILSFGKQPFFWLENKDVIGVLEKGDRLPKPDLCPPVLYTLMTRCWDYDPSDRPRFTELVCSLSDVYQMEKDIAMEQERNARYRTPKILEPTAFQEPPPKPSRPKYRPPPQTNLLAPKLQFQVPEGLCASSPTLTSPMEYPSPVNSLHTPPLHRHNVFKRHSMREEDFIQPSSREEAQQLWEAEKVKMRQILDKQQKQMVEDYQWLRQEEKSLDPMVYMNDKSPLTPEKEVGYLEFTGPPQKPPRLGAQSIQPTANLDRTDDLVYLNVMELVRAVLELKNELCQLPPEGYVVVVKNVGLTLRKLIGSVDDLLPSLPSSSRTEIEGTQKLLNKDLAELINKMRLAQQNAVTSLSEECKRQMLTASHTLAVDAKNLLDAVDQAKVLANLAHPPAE
Sequence of panel of more than 300 wild-type and mutant kinases (313 kinase panel) (Homo sapiens, UniProt P22607, K650M) (P22607 23-806 K650M): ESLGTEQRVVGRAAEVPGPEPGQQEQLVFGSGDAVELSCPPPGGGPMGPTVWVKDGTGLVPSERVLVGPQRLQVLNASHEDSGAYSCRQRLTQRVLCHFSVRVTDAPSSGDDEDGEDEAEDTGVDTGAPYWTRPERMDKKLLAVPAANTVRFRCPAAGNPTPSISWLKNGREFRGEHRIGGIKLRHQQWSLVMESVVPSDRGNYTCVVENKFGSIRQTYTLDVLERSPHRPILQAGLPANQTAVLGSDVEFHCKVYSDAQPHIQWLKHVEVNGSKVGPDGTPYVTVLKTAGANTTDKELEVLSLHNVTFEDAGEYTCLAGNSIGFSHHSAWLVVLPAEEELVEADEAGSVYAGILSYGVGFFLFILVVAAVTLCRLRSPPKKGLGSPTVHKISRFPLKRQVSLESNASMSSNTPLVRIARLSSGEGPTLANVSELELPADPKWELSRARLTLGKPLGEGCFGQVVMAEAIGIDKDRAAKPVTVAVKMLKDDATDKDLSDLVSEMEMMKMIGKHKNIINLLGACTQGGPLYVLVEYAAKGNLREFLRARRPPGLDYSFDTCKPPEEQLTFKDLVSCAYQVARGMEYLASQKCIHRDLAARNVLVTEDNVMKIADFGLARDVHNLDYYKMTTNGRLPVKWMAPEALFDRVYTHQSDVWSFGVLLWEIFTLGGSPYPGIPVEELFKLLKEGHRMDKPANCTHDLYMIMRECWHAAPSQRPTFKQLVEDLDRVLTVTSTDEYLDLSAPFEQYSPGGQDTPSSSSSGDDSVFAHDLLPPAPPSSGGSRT

## Cc1ccc(C(=O)Nc2ccc(CN3CCN(C)CC3)c(C(F)(F)F)c2)cc1C#Cc1cnc2cccnn12 [ponatinib]
[1]
  %-inhibition, CHK1: 3.23%
[2]
  %-inhibition of HGK: 92%
[3]
  %-inhibition of PKCβ1: -5.61%
[4]
  %-inhibition of FGFR4: 98%
[5]
  %-inhibition of FGFR3(K650M): 100%
[6]
  %-inhibition, CDK6/CycD3: 25%
[7]
  %-inhibition of PYK2: 99%
[8]
  %-inhibition of PDHK2: -0.22%
[9]
  %-inhibition of WNK3: 0.73%
[10]
  %-inhibition of NuaK2: -13%
[11]
  %-inhibition of MSSK1: 17%
[12]
  %-inhibition of WNK2: 13%

## CC(C)(C)c1nc(-c2cccc(NS(=O)(=O)c3c(F)cccc3F)c2F)c(-c2ccnc(N)n2)s1 [dabrafenib]
[2]
  %-inhibition of HGK: 7%
[4]
  %-inhibition of FGFR4: 19%
[5]
  %-inhibition of FGFR3(K650M): 7%
[7]
  %-inhibition of PYK2: 56%
[8]
  %-inhibition of PDHK2: 0.108%
[13]
  %-inhibition of EPHA7: 13%
[14]; kinase MARK2, compound at 1 μM
  %-inhibition of MARK2: 2.85%
[9]
  %-inhibition of WNK3: 1.34%
[10]
  %-inhibition of NuaK2: 4.53%
[11]
  %-inhibition of MSSK1: 2.55%
[12]
  %-inhibition of WNK2: 0.686%

## COc1cc(Nc2c(C#N)cnc3cc(OCCCN4CCN(C)CC4)c(OC)cc23)c(Cl)cc1Cl [bosutinib]
[1]
  %-inhibition, CHK1: 83%
[2]
  %-inhibition of HGK: 100%
[3]
  %-inhibition of PKCβ1: 3.68%
[4]
  %-inhibition of FGFR4: 2.67%
[6]
  %-inhibition, CDK6/CycD3: 0.0624%
[7]
  %-inhibition of PYK2: 89%
[8]
  %-inhibition of PDHK2: -3.29%
[14]; 1 µM
  %-inhibition of MARK2: 58%
[9]
  %-inhibition of WNK3: 13%
[10]
  %-inhibition of NuaK2: 87%
[12]
  %-inhibition of WNK2: 4%

## Cc1nc(Nc2ncc(C(=O)Nc3c(C)cccc3Cl)s2)cc(N2CCN(CCO)CC2)n1 [dasatinib]
[2]
  %-inhibition of HGK: 78%
[15]; kinase CK2α2/β, 1 μM compound
  %-inhibition, CK2α2/β: -4.67%
[6]
  %-inhibition, CDK6/CycD3: 9%
[10]
  %-inhibition of NuaK2: 3%
[11]
  %-inhibition of MSSK1: -4.63%
[12]
  %-inhibition of WNK2: 20%

## N#CC[C@H](C1CCCC1)n1cc(-c2ncnc3[nH]ccc23)cn1 [ruxolitinib]
[1]
  %-inhibition, CHK1: 4.66%
[2]
  %-inhibition of HGK: 1.09%
[3]
  %-inhibition of PKCβ1: 1.35%
[15]; 1 µM
  %-inhibition, CK2α2/β: -7%
[4]
  %-inhibition of FGFR4: 6%
[5]
  %-inhibition of FGFR3(K650M): 16%
[6]
  %-inhibition, CDK6/CycD3: -6%
[7]
  %-inhibition of PYK2: 68%
[8]
  %-inhibition of PDHK2: -4%
[13]
  %-inhibition of EPHA7: 7.51%
[9]
  %-inhibition of WNK3: -8%
[10]
  %-inhibition of NuaK2: 41%
[11]
  %-inhibition of MSSK1: 6%
[12]
  %-inhibition of WNK2: -4.57%

## COc1cc2c(Nc3ccc(Br)cc3F)ncnc2cc1OCC1CCN(C)CC1 [vandetanib]
[1]
  %-inhibition, CHK1: 27%
[2]
  %-inhibition of HGK: 69%
[3]
  %-inhibition of PKCβ1: -6%
[15]; kinase CK2α2/β, 1 μM compound
  %-inhibition, CK2α2/β: -7%
[4]
  %-inhibition of FGFR4: 31%
[6]
  %-inhibition, CDK6/CycD3: -1.19%
[7]
  %-inhibition of PYK2: 6%
[8]
  %-inhibition of PDHK2: 0.22%
[13]
  %-inhibition of EPHA7: 81%
[14]; kinase MARK2, compound at 1 μM
  %-inhibition of MARK2: -9%
[9]
  %-inhibition of WNK3: -7%
[10]
  %-inhibition of NuaK2: -14%
[11]
  %-inhibition of MSSK1: -4.37%
[12]
  %-inhibition of WNK2: -4.29%

## CCN(CC)CCNC(=O)c1c(C)[nH]c(/C=C2\C(=O)Nc3ccc(F)cc32)c1C [sunitinib]
[2]
  %-inhibition of HGK: 96%
[15]; kinase CK2α2/β, 1 μM compound
  %-inhibition, CK2α2/β: 25%
[5]
  %-inhibition of FGFR3(K650M): 97%
[7]
  %-inhibition of PYK2: 94%

## O=S(=O)(c1cccc2cnccc12)N1CCCNCC1 [fasudil]
[1]
  %-inhibition, CHK1: -11%
[2]
  %-inhibition of HGK: -1.82%
[3]
  %-inhibition of PKCβ1: 16%
[15]; kinase CK2α2/β, 1 μM compound
  %-inhibition, CK2α2/β: -3.75%
[5]
  %-inhibition of FGFR3(K650M): -0.618%
[6]
  %-inhibition, CDK6/CycD3: -5.68%
[7]
  %-inhibition of PYK2: 1.79%
[8]
  %-inhibition of PDHK2: -0.108%
[13]
  %-inhibition of EPHA7: -5%
[14]; kinase MARK2, compound at 1 μM
  %-inhibition of MARK2: 3.21%
[9]
  %-inhibition of WNK3: 0.446%
[10]
  %-inhibition of NuaK2: 20%
[11]
  %-inhibition of MSSK1: -5.56%
[12]
  %-inhibition of WNK2: 1.45%

## C[C@@H](Oc1cc(-c2cnn(C3CCNCC3)c2)cnc1N)c1c(Cl)ccc(F)c1Cl [crizotinib]
[1]
  %-inhibition, CHK1: 10%
[3]
  %-inhibition of PKCβ1: -3%
[15]; kinase CK2α2/β, 1 μM compound
  %-inhibition, CK2α2/β: -10%
[4]
  %-inhibition of FGFR4: 0%
[5]
  %-inhibition of FGFR3(K650M): 61%
[6]
  %-inhibition, CDK6/CycD3: 0.0624%
[8]
  %-inhibition of PDHK2: -3.51%
[14]; kinase MARK2, compound at 1 μM
  %-inhibition of MARK2: 26%
[9]
  %-inhibition of WNK3: -8%
[10]
  %-inhibition of NuaK2: 87%
[12]
  %-inhibition of WNK2: -4%

## CN(C)C/C=C/C(=O)Nc1cc2c(Nc3ccc(F)c(Cl)c3)ncnc2cc1O[C@H]1CCOC1 [afatinib]
[8]
  %-inhibition of PDHK2: -2.76%

## Cc1ccc(Nc2nccc(N(C)c3ccc4c(C)n(C)nc4c3)n2)cc1S(N)(=O)=O [pazopanib]
[1]
  %-inhibition, CHK1: -7%
[2]
  %-inhibition of HGK: 50%
[3]
  %-inhibition of PKCβ1: -4.7%
[15]; kinase CK2α2/β, 1 μM compound
  %-inhibition, CK2α2/β: 0.17%
[6]
  %-inhibition, CDK6/CycD3: 9%
[7]
  %-inhibition of PYK2: 39%
[8]
  %-inhibition of PDHK2: -4.23%
[13]
  %-inhibition of EPHA7: 12%
[14]; kinase MARK2, compound at 1 μM
  %-inhibition of MARK2: 8%
[9]
  %-inhibition of WNK3: 8%
[10]
  %-inhibition of NuaK2: 2.81%
[11]
  %-inhibition of MSSK1: -2%
[12]
  %-inhibition of WNK2: 3%
